Measurements: patent US8883745B2, “C—glycolipids with enhanced Th-1 profile” (New York University, priority 2006, dated 2014)

How the values were obtained:
Type in all cases: in vivo
IFN-γ [1] = assay: IFN-γ levels in sera upon i.v. glycolipid administration to BALB/c mice (ELISA); design: IFN-γ levels, test 1 / IFN-γ levels, test 2 / IFN-γ levels, average / IFN-γ levels, Total: unit not given here
Protocol: (§1) Five- to six-week-old female C57BL/6 mice and BALB/c mice were purchased from Taconic. Each glycolipid was stored at 1 mg/ml in 100% DMSO. Mice were injected intravenously with 1 μg of each glyocolipid diluted in 200 μL sterile phosphate buffered saline (PBS). At indicated time points, sera were collected from each animal, and concentrations of IFN-γ, IL-4, and IL-12 in the sera were evaluated by enzyme-linked immunosorbent assay (ELISA). Serum concentrations of IFN-γ, IL-4, and IL-12 were evaluated using an ELISA kit (eBioscience, San Diego, Calif.). Briefly, 96 well flat-bottom ELISA plates (NUNC) were coated with capture antibody according to the manufacture's recommendation and incubated overnight at 4° C. The plates were washed with PBS+0.05% Tween 20 (PBS-T), then incubated with manufacturer provided blocking solution for 1 hr at room temperature to block non-specific binding sites. After washing with PBS-T, sera diluted 1:10 was added to the wells and incubated for 2 hrs at room temperature. Plates were then incubated at room temperature for 1 hr with biotintylated detection antibody, washed, incubated with avidin conjugated to horse radish peroxidase (HRP) for 30 min at room temperature, washed, and finally incubated with tetramethylbenzidine substrate solution in the dark for 10 minutes at room temperature. The antibodies, avidin-HRP, and substrate solution were all diluted according to the manufacture's recommendation. Reactions were stopped with 2.0N sulfuric acid and the cytokine concentration in each well was determined by comparing the absorbance at 450 nm in each well to known standards. The levels of Th1- and Th2-type cytokines were determined in two different genetic backgrounds, i.e., in C57BL/6 mice and BALB/c mice. The following compounds were administered: A=compound (A-1 trans-conformer), B=compound (A-2), C=compound (A-3), D=compound (A-4), E=compound (A-5), Z=control (PBS alone), CRONY=α-C-GalCer, KRN=α-GalCer, GCK109 (A-1 trans-conformer), GCK151 (A-1 cis-conformer), GCK152 (A-7). The levels of cytokines were measured at 0, 2, 6, 12, 24, 48, and 72 hours after the compound administration. The levels of Th1-type cytokines IFN-γ and IL-12 are summarized in FIGS. 2A-C and 3A-C, respectively. Table 7 provides IFN-γ/IL-4 and IL-12/IL-4 ratios for various compounds, which can be used as indicators of their ability to selectively stimulate Th1-type immune responses.

IFN-γ [2] = assay: IFN-γ levels in sera upon i.v. glycolipid administration to C57BL/6 mice (ELISA); design: IFN-γ levels, test 1 / IFN-γ levels, test 2 / IFN-γ levels, average / IFN-γ levels, Total / IFN-γ (B6): unit not given here
Protocol: as §1

IL-4 = IL-4 levels in sera upon i.v. glycolipid administration to BALB/c mice (ELISA); design: unit not given here
Protocol: as §1

IL-12 = IL-12 levels in sera upon i.v. glycolipid administration to C57BL/6 mice (ELISA); design: IL-12 levels, test 1 / IL-12 levels, test 2 / IL-12 levels, average / IL-12 levels, Total: unit not given here
Protocol: as §1

[3] = C57BL/6, ratio calculated from Tables 1-6
[4] = C57BL/6, serum, total over hours 0-72

## CCCCCCCCCCCCCCCCCCCCCCCCCCCCC(=O)N[C@@H](/C=C/[C@H]1O[C@H](CO)[C@H](O)[C@H](O)[C@H]1O)[C@H](O)[C@H](O)CCCCCCCCCCCCCC [A-2, (3S,4S,5R)-1-C-(α-D-galactopyranosyl)-3-(N-nonacosanoylamino)-4,5-nonadec-(1,2-E)-enediol]
IFN-γ [1]; BALB/c, ratio calculated from Tables 1-6
  IFN-γ/IL-4 (BALB/c): 43
IFN-γ [1]; BALB/c, serum, hour 0
  IFN-γ levels, average: 27
  IFN-γ levels, test 1: 27
  IFN-γ levels, test 2: 27
IFN-γ [1]; BALB/c, serum, hour 2
  IFN-γ levels, average: 234
  IFN-γ levels, test 1: 197
  IFN-γ levels, test 2: 271
IFN-γ [1]; BALB/c, serum, hour 6
  IFN-γ levels, average: 4185.5
  IFN-γ levels, test 1: 3723
  IFN-γ levels, test 2: 4648
IFN-γ [1]; BALB/c, serum, hour 12
  IFN-γ levels, average: 6418.5
  IFN-γ levels, test 1: 7529
  IFN-γ levels, test 2: 5308
IFN-γ [1]; BALB/c, serum, hour 24
  IFN-γ levels, average: 15500
  IFN-γ levels, test 1: 16500
  IFN-γ levels, test 2: 14500
IFN-γ [1]; BALB/c, serum, hour 48
  IFN-γ levels, average: 325.5
  IFN-γ levels, test 1: 319
  IFN-γ levels, test 2: 332
IFN-γ [1]; BALB/c, serum, hour 72
  IFN-γ levels, average: 62.5
  IFN-γ levels, test 1: 59
  IFN-γ levels, test 2: 66
IFN-γ [1]; BALB/c, serum, total over hours 0-72
  IFN-γ levels, Total: 26755
IFN-γ [1]; C57BL/6 and BALB/c mice, 1 μg i.v.
  effect: higher/extended IFN-γ and IL-12 with much lower IL-4 compared to α-GalCer (KRN): particularly pronounced
IFN-γ [2]; [3]
  IFN-γ/IL-4 (B6): 16
IFN-γ [2]; C57BL/6, serum, hour 0
  IFN-γ levels, average: 31
  IFN-γ levels, test 1: 31
  IFN-γ levels, test 2: 31
IFN-γ [2]; C57BL/6, serum, hour 2
  IFN-γ levels, average: 138.5
  IFN-γ levels, test 1: 138
  IFN-γ levels, test 2: 139
IFN-γ [2]; C57BL/6, serum, hour 6
  IFN-γ levels, average: 944.5
  IFN-γ levels, test 1: 955
  IFN-γ levels, test 2: 934
IFN-γ [2]; C57BL/6, serum, hour 12
  IFN-γ levels, average: 2932
  IFN-γ levels, test 1: 2427
  IFN-γ levels, test 2: 3437
IFN-γ [2]; C57BL/6, serum, hour 24
  IFN-γ levels, average: 8415
  IFN-γ levels, test 1: 7023
  IFN-γ levels, test 2: 9807
IFN-γ [2]; C57BL/6, serum, hour 48
  IFN-γ levels, average: 464
  IFN-γ levels, test 1: 424
  IFN-γ levels, test 2: 504
IFN-γ [2]; C57BL/6, serum, hour 72
  IFN-γ levels, average: 100.5
  IFN-γ levels, test 1: 87
  IFN-γ levels, test 2: 114
IFN-γ [2]; [4]
  IFN-γ levels, Total: 13027
IL-4; hour 0
  IL-4 level, average: 27
  IL-4 level, test 1: 27
  IL-4 level, test 2: 27
IL-4; hour 2
  IL-4 level, average: 330
  IL-4 level, test 1: 263
  IL-4 level, test 2: 397
IL-4; hour 6
  IL-4 level, average: 127
  IL-4 level, test 1: 90
  IL-4 level, test 2: 164
IL-4; hour 12
  IL-4 level, average: 49.5
  IL-4 level, test 1: 48
  IL-4 level, test 2: 51
IL-4; hour 24
  IL-4 level, average: 45.5
  IL-4 level, test 1: 43
  IL-4 level, test 2: 48
IL-4; hour 48
  IL-4 level, average: 40.5
  IL-4 level, test 1: 42
  IL-4 level, test 2: 39
IL-4; hour 72
  IL-4 level, average: 2
  IL-4 level, test 1: 2
  IL-4 level, test 2: 2
IL-4; total over hours 0-72
  IL-4 level, Total: 623
IL-12; [3]
  IL-12/IL-4 (B6): 4.8
IL-12; C57BL/6, serum, hour 0
  IL-12 levels, average: 5
  IL-12 levels, test 1: 5
  IL-12 levels, test 2: 5
IL-12; C57BL/6, serum, hour 2
  IL-12 levels, average: 161.5
  IL-12 levels, test 1: 178
  IL-12 levels, test 2: 145
IL-12; C57BL/6, serum, hour 6
  IL-12 levels, average: 1363.5
  IL-12 levels, test 1: 1488
  IL-12 levels, test 2: 1239
IL-12; C57BL/6, serum, hour 12
  IL-12 levels, average: 1818.5
  IL-12 levels, test 1: 1692
  IL-12 levels, test 2: 1945
IL-12; C57BL/6, serum, hour 24
  IL-12 levels, average: 323
  IL-12 levels, test 1: 44
  IL-12 levels, test 2: 602
IL-12; C57BL/6, serum, hour 48
  IL-12 levels, average: 250
  IL-12 levels, test 1: 500
  IL-12 levels, test 2: 0
IL-12; C57BL/6, serum, hour 72
  IL-12 levels, average: 45.5
  IL-12 levels, test 1: 91
  IL-12 levels, test 2: 0
IL-12; [4]
  IL-12 levels, Total: 3969
